Experimental data reported in patent US10780074B2, “Compounds and uses thereof” (Sunovion Pharmaceuticals Inc., priority 2017, dated 2020).
Counter-ions that a name gives are not always drawn.

System: behaviors of compound-treated mice
Test: Neuropharmacological Assay (SmartCube)
Format: in vivo
Settings: for minimal effective dose: Mus musculus, ip, 0.25 h, dose having 50% or more total activity in SmartCube, i.p., read-out: MED (minimal effective dose); for AD: ADHD (probability that activity matches class) / AG: analgesic (probability that activity matches class) / AX: anxiolytic (probability that activity matches class) / CE: cognitive enhancer (probability that activity matches class) / DP: anti-depressant (probability that activity matches class) / MS: mood stabilizer (probability that activity matches class) / PS: anti-psychotic (probability that activity matches class) / SD: sedative hypnotic (probability that activity matches class) / UN: uncharacterized CNS activity (probability that activity matches class): i.p. 15 min before behavioral test, most efficacious dose(s) of 3 doses
Excerpt: Neuropharmacological Assay (SmartCube™)
Neurosci. 2011 Sep. 9; 5:103 (doi: 10.3389/fnins.2011.00103) (“Roberds”). As reported in Roberds, because psychiatric diseases generally result from disorders of cell-cell communication or circuitry, intact systems are useful in detecting improvement in disease-relevant endpoints. These endpoints are typically behavioral in nature, often requiring human observation and interpretation. To facilitate testing of multiple compounds for behavioral effects relevant to psychiatric disease, PsychoGenics, Inc. (Tarrytown, N.Y., “PGI”) developed SmartCube™, an automated system in which behaviors of compound-treated mice are captured by digital video and analyzed with computer algorithms. (D. Brunner et al., Drug Discov. Today 2002, 7:S107-S112). PGI Analytical Systems uses data from SmartCube™ to compare the behavioral signature of a test compound to a database of behavioral signatures obtained using a large set of diverse reference compounds. (The composition of the database as well as validation of the method is further described in Roberds). In this way, the neuropharmacological effects of a test compound can be predicted by similarity to major classes of compounds, such as antipsychotics, anxiolytics and antidepressants.
The SmartCube™ system produces an activity signature indicating the probability that the activity of the test compound at the administered dose matches a given class of neuropharmacological agents. (See, e.g., Roberds, FIGS. 2 and 3). The test compound is simultaneously compared against multiple classes of agents; thus, a separate probability is generated for each behavioral effect measured (e.g., anxiolytic activity, analgesic activity, etc.). In the table below, these probabilities are reported for each behavioral effect measured as follows:
Provided compounds were dissolved in a mixture of Pharmasolve™ (N-methyl-2-pyrrolidone), polyethylene glycol and propylene glycol, and were injected i.p. 15 min. before the behavioral test. For each compound, injections were administered at 3 different doses. For each behavioral effect measured, results for the most efficacious dose(s) are presented. In the table below, DP: anti-depressant; AX: anxiolytic; SD: sedative hypnotic; PS: anti-psychotic; MS: mood stabilizer; AD: ADHD; CE: cognitive enhancer; AG: analgesic; UN: uncharacterized CNS activity.
The potency of many of the compounds in the table was also determined in the SmartCube™ system. Test compounds were routinely examined at dose levels of 0.3, 1, 3 10 and 30 mg per kg (mpk), although the dose range was increased or decreased if necessary to obtain a full dose response curve. A compound's minimal effective dose (MED) is a measure of the compounds potency. The MED was defined as the dose (in mpk) having 50% or more total activity in SmartCube.

| Compound | minimal effective dose [mg/kg] | AD: ADHD (probability that activity matches class) | AG: analgesic (probability that activity matches class) | AX: anxiolytic (probability that activity matches class) | CE: cognitive enhancer (probability that activity matches class) | DP: anti-depressant (probability that activity matches class) | MS: mood stabilizer (probability that activity matches class) | PS: anti-psychotic (probability that activity matches class) | SD: sedative hypnotic (probability that activity matches class) | UN: uncharacterized CNS activity (probability that activity matches class) |
| --- | --- | --- | --- | --- | --- | --- | --- | --- | --- | --- |
| CNC[C@@H]1OCCc2cccc(-c3cccnc3)c21 (single isomer, unassigned) [Compound 1, bis-hydrochloride] | 10 to 30 | + (LOQ ≤ + <5%) | + (LOQ ≤ + <5%) | ++ (5% ≤ ++ <25%) | ++ (5% ≤ ++ <25%) | ++ (5% ≤ ++ <25%) | + (LOQ ≤ + <5%) | ++ (5% ≤ ++ <25%) | + (LOQ ≤ + <5%) | ++ (5% ≤ ++ <25%) |
| CNC[C@@H]1OCCc2ccc(-c3cccnc3)cc21 (single isomer, unassigned) [Compound 3, dihydrochloride] | 3 to 10 | + (LOQ ≤ + <5%) | ++ (5% ≤ ++ <25%) | ++ (5% ≤ ++ <25%) | ++ (5% ≤ ++ <25%) | ++ (5% ≤ ++ <25%) | ++ (5% ≤ ++ <25%) | ++ (5% ≤ ++ <25%) | + (LOQ ≤ + <5%) | ++ (5% ≤ ++ <25%) |
| CNC[C@@H]1OCCc2c(-c3cccnc3)cccc21 (single isomer, unassigned) [Compound 7, bis-hydrochloride] | 10 to 30 | ++ (5% ≤ ++ <25%) | + (LOQ ≤ + <5%) | ++ (5% ≤ ++ <25%) | + (LOQ ≤ + <5%) | +++ (25% ≤ +++ <50%) | + (LOQ ≤ + <5%) | + (LOQ ≤ + <5%) | + (LOQ ≤ + <5%) | + (LOQ ≤ + <5%) |
| CNC[C@H]1OCCc2c(-c3cccnc3)cccc21 (single isomer, unassigned) [Compound 8, bis-hydrochloride] | ≤ 3 | ++ (5% ≤ ++ <25%) | + (LOQ ≤ + <5%) | ++ (5% ≤ ++ <25%) | + (LOQ ≤ + <5%) | ++++ (50% ≤ ++++) | + (LOQ ≤ + <5%) | + (LOQ ≤ + <5%) | + (LOQ ≤ + <5%) | + (LOQ ≤ + <5%) |
| NC[C@@H]1OCCc2cccc(-c3cccnc3)c21 (single isomer, unassigned) [Compound 9, hydrochloride] | 10 to 30 | + (LOQ ≤ + <5%) | ++ (5% ≤ ++ <25%) | ++ (5% ≤ ++ <25%) | + (LOQ ≤ + <5%) | ++ (5% ≤ ++ <25%) | + (LOQ ≤ + <5%) | ++ (5% ≤ ++ <25%) | + (LOQ ≤ + <5%) | + (LOQ ≤ + <5%) |
| NC[C@H]1OCCc2cccc(-c3cccnc3)c21 (single isomer, unassigned) [Compound 10, hydrochloride] | 10 to 30 | + (LOQ ≤ + <5%) | +++ (25% ≤ +++ <50%) | + (LOQ ≤ + <5%) | + (LOQ ≤ + <5%) | ++ (5% ≤ ++ <25%) | + (LOQ ≤ + <5%) | + (LOQ ≤ + <5%) | + (LOQ ≤ + <5%) | + (LOQ ≤ + <5%) |
| NC[C@@H]1OCCc2ccc(-c3cccnc3)cc21 (single isomer, unassigned) [Compound 11, hydrochloride] | 10 to 30 | + (LOQ ≤ + <5%) | ++ (5% ≤ ++ <25%) | + (LOQ ≤ + <5%) | + (LOQ ≤ + <5%) | ++++ (50% ≤ ++++) | + (LOQ ≤ + <5%) | + (LOQ ≤ + <5%) | + (LOQ ≤ + <5%) | + (LOQ ≤ + <5%) |
| NC[C@H]1OCCc2ccc(-c3cccnc3)cc21 (single isomer, unassigned) [Compound 12, hydrochloride] | 10 to 30 | + (LOQ ≤ + <5%) | + (LOQ ≤ + <5%) | + (LOQ ≤ + <5%) | + (LOQ ≤ + <5%) | ++++ (50% ≤ ++++) | + (LOQ ≤ + <5%) | ++ (5% ≤ ++ <25%) | ++ (5% ≤ ++ <25%) | + (LOQ ≤ + <5%) |
| CNC[C@H]1OCCc2ccc(-c3cncnc3)cc21 (single isomer, unassigned) [Compound 25, hydrochloride] | 10 to 30 | + (LOQ ≤ + <5%) | ++ (5% ≤ ++ <25%) | ++ (5% ≤ ++ <25%) | +++ (25% ≤ +++ <50%) | ++ (5% ≤ ++ <25%) | ++ (5% ≤ ++ <25%) | ++ (5% ≤ ++ <25%) | ++ (5% ≤ ++ <25%) | + (LOQ ≤ + <5%) |
| CNC[C@@H]1OCCc2ccc(-c3cncnc3)cc21 (single isomer, unassigned) [Compound 26, hydrochloride] | > 30 | + (LOQ ≤ + <5%) | + (LOQ ≤ + <5%) | + (LOQ ≤ + <5%) | + (LOQ ≤ + <5%) | + (LOQ ≤ + <5%) | + (LOQ ≤ + <5%) | + (LOQ ≤ + <5%) | + (LOQ ≤ + <5%) | + (LOQ ≤ + <5%) |
| NC[C@@H]1OCCc2c(-c3cncnc3)cccc21 (single isomer, unassigned) [Compound 27, hydrochloride salt] | > 30 | + (LOQ ≤ + <5%) | + (LOQ ≤ + <5%) | ++ (5% ≤ ++ <25%) | + (LOQ ≤ + <5%) | ++ (5% ≤ ++ <25%) | + (LOQ ≤ + <5%) | ++ (5% ≤ ++ <25%) | + (LOQ ≤ + <5%) | + (LOQ ≤ + <5%) |
